Measurements taken from US11827657B2, “Boron containing pyrazole compounds, compositions comprising them, methods and uses thereof” (BOEHRINGER INGELHEIM ANIMAL HEALTH USA INC., priority 2020, dated 2023).

biological target: JAK1 (Homo sapiens, UniProt P23458); experiment: Biochemical Kinase Assay (JAK), 33P-ATP filter-binding; conditions: Biochemical Kinase Inhibition Assay; potency level of IC50; read-out: JAK1 (range)
Summary of the method: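 Radiometric filter-binding with 33P-ATP in pH 7.5 Hepes buffer with 10 mM MgCl2 and 1% DMSO. Compound preincubated with kinase and substrate 20 min at room temperature, reaction run 2 h at room temperature, spotted on P81 paper to give IC50.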

Chain of JAK1 (P23458 whole entry, species assumed): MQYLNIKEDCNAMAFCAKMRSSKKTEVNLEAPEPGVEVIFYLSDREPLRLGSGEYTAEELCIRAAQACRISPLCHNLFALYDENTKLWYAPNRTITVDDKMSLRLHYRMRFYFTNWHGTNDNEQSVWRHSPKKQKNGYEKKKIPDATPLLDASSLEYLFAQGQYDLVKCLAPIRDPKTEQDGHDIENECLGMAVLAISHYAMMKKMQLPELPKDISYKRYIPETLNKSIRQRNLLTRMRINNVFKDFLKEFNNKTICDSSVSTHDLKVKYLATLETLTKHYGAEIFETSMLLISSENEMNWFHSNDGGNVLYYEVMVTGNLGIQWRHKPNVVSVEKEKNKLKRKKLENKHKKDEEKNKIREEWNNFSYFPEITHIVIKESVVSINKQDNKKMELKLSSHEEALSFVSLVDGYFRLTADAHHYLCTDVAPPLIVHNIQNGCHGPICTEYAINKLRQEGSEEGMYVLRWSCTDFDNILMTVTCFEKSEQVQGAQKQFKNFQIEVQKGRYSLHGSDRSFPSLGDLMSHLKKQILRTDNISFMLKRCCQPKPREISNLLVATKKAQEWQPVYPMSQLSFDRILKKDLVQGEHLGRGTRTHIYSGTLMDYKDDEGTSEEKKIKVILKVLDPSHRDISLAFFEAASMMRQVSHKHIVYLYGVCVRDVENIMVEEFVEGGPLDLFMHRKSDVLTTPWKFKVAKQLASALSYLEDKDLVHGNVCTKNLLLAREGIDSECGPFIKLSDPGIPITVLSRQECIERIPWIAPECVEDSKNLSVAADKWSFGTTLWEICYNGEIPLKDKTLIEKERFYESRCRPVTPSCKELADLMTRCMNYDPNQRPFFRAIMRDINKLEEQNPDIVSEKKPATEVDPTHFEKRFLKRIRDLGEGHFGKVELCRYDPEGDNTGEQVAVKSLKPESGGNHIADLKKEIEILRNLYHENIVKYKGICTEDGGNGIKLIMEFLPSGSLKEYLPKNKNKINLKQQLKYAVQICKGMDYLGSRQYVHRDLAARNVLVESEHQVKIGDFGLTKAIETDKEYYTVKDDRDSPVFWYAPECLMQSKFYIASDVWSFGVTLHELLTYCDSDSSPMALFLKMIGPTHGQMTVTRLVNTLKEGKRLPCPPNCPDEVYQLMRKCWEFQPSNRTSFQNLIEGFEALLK

Compound	IC50 [µM]
Cc1cc(Nc2nn(C3COCCC3C#N)cc2C(N)=O)cc2c1B(O)OC2 (stereo not drawn) [Example 6, 1-(trans-4-cyanotetrahydro-2H-pyran-3-yl)-3-[(1-hydroxy-7-methyl-3H-2,1-benzoxaborol-5-yl)amino]pyrazole-4-carboxamide]	< 0.01
N#CC1CCOCC1n1cc(C(N)=O)c(Nc2cc(Cl)c3c(c2)C=CB(O)O3)n1 (stereo not drawn) [Example 13, 3-((8-chloro-2-hydroxy-2H-benzo[e][1,2]oxaborinin-6-yl)amino)-1-(trans-4-cyanotetrahydro-2H-pyran-3-yl)-1H-pyrazole-4-carboxamide]	< 0.01
CC1=Cc2cc(Nc3nn(C4COCCC4C#N)cc3C(N)=O)cc(F)c2OB1O (stereo not drawn) [Example 14, 1-(trans-4-cyanotetrahydro-2H-pyran-3-yl)-3-[(8-fluoro-2-hydroxy-3-methyl-1,2-benzoxaborinin-6-yl)amino]pyrazole-4-carboxamide]	< 0.01
N#CC1CCOCC1n1cc(C(N)=O)c(Nc2ccc3c(c2)B(O)OC3)n1 (stereo not drawn) [Example 16, 1-(trans-4-cyanotetrahydro-2H-pyran-3-yl)-3-((1-hydroxy-1,3-dihydrobenzo[c][1,2]oxaborol-6-yl)amino)-1H-pyrazole-4-carboxamide]	< 0.01
CC1=C(C)c2cc(Nc3nn(C4COCCC4C#N)cc3C(N)=O)cc(C)c2OB1O (stereo not drawn) [Example 23, 1-(trans-4-cyanotetrahydropyran-3-yl)-3-[(2-hydroxy-3,4,8-trimethyl-1,2-benzoxaborinin-6-yl)amino]pyrazole-4-carboxamide]	< 0.01
Cc1cc(Nc2nn(C3COCCC3C#N)cc2C(N)=O)cc2c1OB(O)C=C2 (stereo not drawn) [Example 27, 1-[trans-4-cyanotetrahydro-2H-pyran-3-yl]-3-[(2-hydroxy-8-methyl-1,2-benzoxaborinin-6-yl)amino]pyrazole-4-carboxamide]	< 0.01
CC1(C)OB(O)c2cc(Nc3nn(C4COCCC4C#N)cc3C(N)=O)ccc21 (stereo not drawn) [Example 36, 1-[trans-4-cyanotetrahydro-2H-pyran-3-yl]-3-[(1-hydroxy-3,3-dimethyl-2,1-benzoxaborol-6-yl)amino]pyrazole-4-carboxamide]	< 0.01
N#CC1CCOCC1n1cc(C(N)=O)c(Nc2ccc3c(c2)B(O)OCC3)n1 (stereo not drawn) [Example 42, 1-[trans-4-cyanotetrahydro-2H-pyran-3-yl]-3-[(1-hydroxy-3,4-dihydro-2,1-benzoxaborinin-7-yl)amino]pyrazole-4-carboxamide]	< 0.01
N#CC1CCOCC1n1cc(C(N)=O)c(Nc2ccc3c(c2)C(Cl)=CB(O)O3)n1 (stereo not drawn) [Example 43, 3-[(4-chloro-2-hydroxy-1,2-benzoxaborinin-6-yl)amino]-1-[trans-4-cyanotetrahydro-2H-pyran-3-yl]pyrazole-4-carboxamide]	< 0.01
N#CC1CCOCC1n1cc(C(N)=O)c(Nc2cc(Cl)c3c(c2)COB3O)n1 (stereo not drawn) [Example 52, 3-((7-chloro-1-hydroxy-1,3-dihydrobenzo[c][1,2]oxaborol-5-yl)amino)-1-(trans-4-cyanotetrahydro-2H-pyran-3-yl)-1H-pyrazole-4-carboxamide]	< 0.01

Results, then the compound that gave them:

IC50 [µM]	Compound
< 0.01	CC(C)C1=CB(O)Oc2ccc(Nc3nn(C4COCCC4C#N)cc3C(N)=O)cc21 (stereo not drawn) [Example 30, 1-[trans-4-cyanotetrahydro-2H-pyran-3-yl]-3-[(2-hydroxy-4-isopropyl-1,2-benzoxaborinin-6-yl)amino]pyrazole-4-carboxamide]
< 0.01	N#CC1CCOCC1n1cc(C(N)=O)c(Nc2cc(F)c3c(c2)COB3O)n1 (stereo not drawn) [Example 38, 1-[trans-4-cyanotetrahydro-2H-pyran-3-yl]-3-[(7-fluoro-1-hydroxy-3H-2,1-benzoxaborol-5-yl)amino]pyrazole-4-carboxamide]
< 0.01	N#CC1CCOCC1n1cc(C(N)=O)c(Nc2ccc3c(c2)COB3O)n1 (stereo not drawn) [Example 41, 1-(trans-4-cyanotetrahydro-2H-pyran-3-yl)-3-((1-hydroxy-1,3-dihydrobenzo[c][1,2]oxaborol-5-yl)amino)-1H-pyrazole-4-carboxamide]
< 0.01	N#CC1CCOCC1n1cc(C(N)=O)c(Nc2cc(F)c3c(c2)C=CB(O)O3)n1 (stereo not drawn) [Example 44, 1-[trans-4-cyanotetrahydro-2H-pyran-3-yl]-3-[(8-fluoro-2-hydroxy-1,2-benzoxaborinin-6-yl)amino]pyrazole-4-carboxamide]
< 0.01	CC(C)C1=Cc2cc(Nc3nn(C4COCCC4C#N)cc3C(N)=O)ccc2OB1O (stereo not drawn) [Example 48, 1-(trans-4-cyanotetrahydro-2H-pyran-3-yl)-3-((2-hydroxy-3-isopropyl-2H-benzo[e][1,2]oxaborinin-6-yl)amino)-1H-pyrazole-4-carboxamide]
< 0.01	N#CC1CCOCC1n1cc(C(N)=O)c(Nc2ccc3c(c2)C=CB(O)O3)n1 (stereo not drawn) [Example 51, 1-(trans-4-cyanotetrahydro-2H-pyran-3-yl)-3-[(2-hydroxy-1,2-benzoxaborinin-6-yl)amino]pyrazole-4-carboxamide]
